Source: patent US20240148821A1, “PHARMACEUTICAL USE OF CYCLIC PEPTIDE COMPOUND” (CHUGAI SEIYAKU KABUSHIKI KAISHA, priority 2021, published 2024)
Numbered stars: 1 amine (or outer) side, 2 acyl side, 3 side chain; on linkers, the order of the positions; unused ones are H or OH. Bridge positions count the residues as written; N and C are the ends. Square brackets hold non-standard residues; d marks the D form. Peptide text beside a SMILES is read from it. * marks the point of attachment. hPhe(3-Cl-4-CF3) = N[C@@H](CCc1ccc(C(F)(F)F)c(Cl)c1)C(=O)O; hPhe(3-F,4-CF3) = N[C@@H](CCc1ccc(C(F)(F)F)c(F)c1)C(=O)O; NMePhe(4-CF3) = CN[C@@H](Cc1ccc(C(F)(F)F)cc1)C(=O)O; NMePhe(2-CF3) = CN[C@@H](Cc1ccccc1C(F)(F)F)C(=O)O; NMePhe(4-Cl) = CN[C@@H](Cc1ccc(Cl)cc1)C(=O)O; NMePhe(4-Me) = CN[C@@H](Cc1ccc(C)cc1)C(=O)O; NMePhe(2-Cl) = CN[C@@H](Cc1ccccc1Cl)C(=O)O; NMedβ3hAla = C[C@H](CC(=O)[*:2])N(C)[*:1]; NMeNva(5,5-F2) = CN[C@@H](CCC(F)F)C(=O)O; NMeGly(cPent) = CN[C@H](C(=O)O)C1CCCC1; Phe(3-I) = N[C@@H](Cc1cccc(I)c1)C(=O)O; NMeCha = CN[C@@H](CC1CCCCC1)C(=O)O; NMeChg = CN[C@H](C(=O)O)C1CCCCC1; NMeβAla = CN(CCC(=O)[*:2])[*:1]; NMeD = CN[C@@H](CC(=O)O)C(=O)O; NMeL = CN[C@@H](CC(C)C)C(=O)O; NMeV = CN[C@H](C(=O)O)C(C)C; d(β3hA) = C[C@@H](N)CC(=O)O; NMeA = CN[C@@H](C)C(=O)O; NMeAib = CNC(C)(C)C(=O)O; Nle = CCCC[C@H](N)C(=O)O; Piperidide = C1CCN(*)CC1; Pyrrolidide = C1CCN(*)C1; Ac5c = NC1(C(=O)O)CCCC1; Aze = O=C(O)[C@@H]1CCN1; Ac4c = NC1(C(=O)O)CCC1; Aib = CC(C)(N)C(=O)O; Sar = CNCC(=O)O

System: Human pancreatic cancer cell line AsPC-1 (G12D mutation Kras)
Assay: AsPC-1 cell growth inhibition (AsPC-1 CGI)
Assay type: cell-based
Details: read-out: AsPC-1 cell growth inhibition, 50% growth inhibitory concentration (IC50 value); 96 hours, CellTiter-Glo, values classified in ranges
Protocol: Test compounds were serially dilated with dimethyl sulfoxide, and 200 nL was then dispensed to a U-bottom 96-well plate using Labcyte Echo. […] The cell suspension was dispensed to a. plate containing a test compound at 100 μL per well and incubated at 37° C. in a 5% carbon dioxide gas incubator. 96 hours later, 80 μL of CellTiter-Glo (Promega) was added to each well and fluorescence was measured.

Compound | IC50 [nM]
CC[C@H](C)[C@@H]1NC(=O)[C@H](CC(C)C)N(C)C(=O)C[C@@H](C)NC(=O)[C@H](C2CCCC2)N(C)C(=O)C2(CCCC2)NC(=O)[C@H](C)NC(=O)[C@H](CCc2ccc(C(F)(F)F)c(Cl)c2)NC(=O)CN(C)C(=O)[C@H](Cc2ccc(C)cc2)N(C)C(=O)[C@@H]2CCN2C(=O)[C@H](C)N(C)C1=O [Compound 1307] (cyclo(A[Ac5c][NMeGly(cPent)][d(β3hA)][NMeL]I[NMeA][Aze][NMePhe(4-Me)][Sar][hPhe(3-Cl-4-CF3)])) | > 500
CCCC[C@@H]1NC(=O)[C@H](Cc2cccc(I)c2)NC(=O)CN(C)C(=O)[C@H](Cc2ccc(Cl)cc2)N(C)C(=O)CN(C)C(=O)CN(C)C(=O)[C@H]([C@@H](C)CC)NC(=O)[C@H](CC(C)C)N(C)C(=O)C[C@@H](C(=O)N2CCCCC2)N(C)C(=O)[C@H](CC(C)C)NC(=O)[C@H](Cc2ccccc2C(F)(F)F)N(C)C1=O [Compound 813] ([NMeL]I[Sar][Sar][NMePhe(4-Cl)][Sar][Phe(3-I)][Nle][NMePhe(2-CF3)]L[NMeD]-Piperidide; lactam N-11) | > 500
CC[C@H](C)[C@@H]1NC(=O)[C@H](C)N(C)C(=O)C[C@@H](C)N(C)C(=O)[C@H](CC(C)C)NC(=O)C(C)(C)N(C)C(=O)[C@H](CC(C)C)NC(=O)[C@H](CCc2ccc(C(F)(F)F)c(Cl)c2)NC(=O)CN(C)C(=O)[C@H](Cc2ccc(C)cc2)N(C)C(=O)[C@@H]2CCN2C(=O)CN(C)C1=O [Compound 1377] (cyclo([Aze][NMePhe(4-Me)][Sar][hPhe(3-Cl-4-CF3)]L[NMeAib]L[NMedβ3hAla][NMeA]I[Sar])) | > 500
CC[C@H](C)[C@@H]1NC(=O)[C@H](CC(C)C)N(C)C(=O)C[C@@H](C)N(C)C(=O)[C@H](CC(C)C)NC(=O)C(C)(C)N(C)C(=O)[C@H](CC(C)C)NC(=O)[C@H](CCc2ccc(C(F)(F)F)c(Cl)c2)NC(=O)CN(C)C(=O)[C@H](Cc2ccc(C(F)(F)F)cc2)N(C)C(=O)[C@@H]2CCN2C(=O)CN(C)C1=O [Compound 1403] (cyclo([Aze][NMePhe(4-CF3)][Sar][hPhe(3-Cl-4-CF3)]L[NMeAib]L[NMedβ3hAla][NMeL]I[Sar])) | > 500
CC[C@H](C)[C@@H]1NC(=O)[C@H](CC(C)C)N(C)C(=O)C[C@@H](C(=O)N2CCCCC2)N(C)C(=O)[C@H](C2CCCCC2)N(C)C(=O)[C@@H](C)NC(=O)[C@@H]2CCCN2C(=O)[C@H](CCc2ccc(C(F)(F)F)c(Cl)c2)NC(=O)CN(C)C(=O)[C@H](CC2CCCCC2)N(C)C(=O)CN(C)C(=O)CN(C)C1=O [Compound 917] ([NMeL]I[Sar][Sar][NMeCha][Sar][hPhe(3-Cl-4-CF3)]P[dA][NMeChg][NMeD]-Piperidide; lactam N-11) | > 500
CC[C@H](C)[C@@H]1NC(=O)[C@H](CC(C)C)N(C)C(=O)C[C@@H](C(=O)N2CCCCC2)N(C)C(=O)[C@H](CCC(F)F)N(C)C(=O)C2(CCCC2)NC(=O)[C@@H]2CCCN2C(=O)[C@H](CCc2ccc(C(F)(F)F)c(Cl)c2)NC(=O)CN(C)C(=O)[C@H](CC2CCCCC2)N(C)C(=O)CN(C)C(=O)CN(C)C1=O [Compound 1782] ([NMeL]I[Sar][Sar][NMeCha][Sar][hPhe(3-Cl-4-CF3)]P[Ac5c][NMeNva(5,5-F2)][NMeD]-Piperidide; lactam N-11) | > 500
CC[C@H](C)[C@@H]1NC(=O)[C@H](C)N(C)C(=O)C[C@@H](C(=O)N2CCCC2)N(C)C(=O)[C@H](C(C)C)N(C)C(=O)C2(CCC2)NC(=O)[C@H](Cc2ccccc2Cl)N(C)C(=O)[C@H](CCc2ccc(C(F)(F)F)c(Cl)c2)NC(=O)CN(C)C(=O)[C@H](CC2CCCCC2)N(C)C(=O)CN(C)C(=O)CN(C)C1=O [Compound 906] ([NMeA]I[Sar][Sar][NMeCha][Sar][hPhe(3-Cl-4-CF3)][NMePhe(2-Cl)][Ac4c][NMeV][NMeD]-Pyrrolidide; lactam N-11) | > 500
CC[C@H](C)[C@@H]1NC(=O)[C@H](CC(C)C)N(C)C(=O)CCN(C)C(=O)[C@H](C(C)C)N(C)C(=O)C2(CCCC2)NC(=O)[C@@H]2CCCN2C(=O)[C@H](CCc2ccc(C(F)(F)F)c(F)c2)NC(=O)CN(C)C(=O)[C@H](CC2CCCCC2)N(C)C(=O)CN(C)C(=O)CN(C)C1=O [Compound 879] (cyclo([Ac5c][NMeV][NMeβAla][NMeL]I[Sar][Sar][NMeCha][Sar][hPhe(3-F,4-CF3)]P)) | > 500
CC[C@H](C)[C@@H]1NC(=O)[C@H](C)N(C)C(=O)C[C@@H](C(=O)N2CCCC2)N(C)C(=O)[C@H](C(C)C)N(C)C(=O)C(C)(C)NC(=O)[C@H](Cc2ccccc2Cl)N(C)C(=O)[C@H](CCc2ccc(C(F)(F)F)c(Cl)c2)NC(=O)CN(C)C(=O)[C@H](CC2CCCCC2)N(C)C(=O)CN(C)C(=O)CN(C)C1=O [Compound 426] ([NMeA]I[Sar][Sar][NMeCha][Sar][hPhe(3-Cl-4-CF3)][NMePhe(2-Cl)][Aib][NMeV][NMeD]-Pyrrolidide; lactam N-11) | > 500
